Common to all, as to assay: relative viability (nuclei count vs DMSO), 5 days (fraction); higher = more cells survive
Compound in the experiment “NPK76-II-72-1 + Olaparib”: CC1CC(=O)N(C2=CN=C(N=C2N1C3CCCC3)NC4=C(C=C(C=C4)C(=O)NC5CCN(CC5)C)OC)C [NPK76-II-72-1] + O=C(c1cc(Cc2n[nH]c(=O)c3ccccc23)ccc1F)N1CCN(C(=O)C2CC2)CC1 [Olaparib] (partner 8 µM)
Put shortly: (§1)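 After 5 days of treatment, lung cancer cells in 1536-well plates were fixed and stained in a single step (final 0.05% Triton X-100, 1% formaldehyde, 1 ug/ml Hoechst) and their nuclei counted on 4× images. Treatment had been applied by pin tool the day after seeding as one drug alone or as a fixed anchor-drug dose with five library-drug doses (not always all listed) in √10 steps. Relative viability is the nuclei count of treated wells divided by that of vehicle wells, and values are medians of duplicate plates.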

Compound in the experiment “BI-2536 + OSI-027”: CC[C@@H]1C(=O)N(C)c2cnc(Nc3ccc(C(=O)NC4CCN(C)CC4)cc3OC)nc2N1C1CCCC1 [BI-2536] + COc1cccc2cc(-c3nc([C@H]4CC[C@H](C(=O)O)CC4)n4ncnc(N)c34)[nH]c12 [OSI-027] (partner 0.5 µM)
The gist of the method:
as §1

Compound in the experiment “BI-2536 + Trametinib”: CC[C@@H]1C(=O)N(C)c2cnc(Nc3ccc(C(=O)NC4CCN(C)CC4)cc3OC)nc2N1C1CCCC1 [BI-2536] + CC(=O)Nc1cccc(-n2c(=O)n(C3CC3)c(=O)c3c(Nc4ccc(I)cc4F)n(C)c(=O)c(C)c32)c1 [Trametinib] (partner 0.02 µM)
Put shortly: as §1

Compound in the experiment “BI-2536 + Crizotinib”: CC[C@@H]1C(=O)N(C)c2cnc(Nc3ccc(C(=O)NC4CCN(C)CC4)cc3OC)nc2N1C1CCCC1 [BI-2536] + C[C@@H](Oc1cc(-c2cnn(C3CCNCC3)c2)cnc1N)c1c(Cl)ccc(F)c1Cl [Crizotinib] (partner 1 µM)
Put shortly:
as §1

The record followed here is the supplement of paper PMC10307832.

Regarding NCI-H23, the relative viability with NPK76-II-72-1 + Olaparib (first compound 0.01 µM) worked out at 0.228; with NPK76-II-72-1 + Olaparib (first compound 0.03162 µM), 0.29; in the experiment with NPK76-II-72-1 + Olaparib (first compound 0.1 µM), 0.316; with NPK76-II-72-1 + Olaparib (first compound 0.3162 µM), 0.255; with NPK76-II-72-1 + Olaparib (first compound 1 µM), 0.354; with BI-2536 + OSI-027 (first compound 0.01 µM) it was 0.551. Also, the relative viability was 0.508 with BI-2536 + OSI-027 (first compound 0.03162 µM); 0.16 with BI-2536 + OSI-027 (first compound 0.1 µM); 0.107 with BI-2536 + OSI-027 (first compound 0.3162 µM); 0.107 in the experiment with BI-2536 + OSI-027 (first compound 1 µM); 0.372 with BI-2536 + Trametinib (first compound 0.01 µM); 0.464 in the experiment with BI-2536 + Trametinib (first compound 0.03162 µM). The relative viability in the experiment with BI-2536 + Trametinib (first compound 0.1 µM) turned out to be 0.201; with BI-2536 + Trametinib (first compound 0.3162 µM), 0.112; with BI-2536 + Trametinib (first compound 1 µM), 0.14; with BI-2536 + Crizotinib (first compound 0.01 µM), 0.622; in the experiment with BI-2536 + Crizotinib (first compound 0.03162 µM), 0.398; with BI-2536 + Crizotinib (first compound 0.1 µM) it was 0.426. Also, the relative viability is 0.146 with BI-2536 + Crizotinib (first compound 0.3162 µM) and 0.141 with BI-2536 + Crizotinib (first compound 1 µM).
For LCLC-97TM1, the relative viability with NPK76-II-72-1 + Olaparib (first compound 0.01 µM) was 0.357; with NPK76-II-72-1 + Olaparib (first compound 0.03162 µM), 0.394; in the experiment with NPK76-II-72-1 + Olaparib (first compound 0.1 µM) it was 0.346; with NPK76-II-72-1 + Olaparib (first compound 0.3162 µM), 0.249; with NPK76-II-72-1 + Olaparib (first compound 1 µM), 0.424; in the experiment with BI-2536 + OSI-027 (first compound 0.01 µM) it was 0.575. Also, the relative viability with BI-2536 + OSI-027 (first compound 0.03162 µM) is 0.538; with BI-2536 + OSI-027 (first compound 0.1 µM), 0.434; with BI-2536 + OSI-027 (first compound 0.3162 µM) it was 0.138; in the experiment with BI-2536 + OSI-027 (first compound 1 µM), 0.167; with BI-2536 + Trametinib (first compound 0.01 µM), 0.189; with BI-2536 + Trametinib (first compound 0.03162 µM), 0.179. For the same cell line, the relative viability is 0.2 with BI-2536 + Trametinib (first compound 0.1 µM); 0.0929 with BI-2536 + Trametinib (first compound 0.3162 µM); 0.0902 with BI-2536 + Trametinib (first compound 1 µM); 0.249 with BI-2536 + Crizotinib (first compound 0.01 µM); 0.303 in the experiment with BI-2536 + Crizotinib (first compound 0.03162 µM); 0.2 with BI-2536 + Crizotinib (first compound 0.1 µM). In addition, the relative viability was 0.168 with BI-2536 + Crizotinib (first compound 0.3162 µM) and 0.105 in the experiment with BI-2536 + Crizotinib (first compound 1 µM).
EPLC-272H: the relative viability worked out at 0.831 with NPK76-II-72-1 + Olaparib (first compound 0.01 µM); 0.825 with NPK76-II-72-1 + Olaparib (first compound 0.03162 µM); 0.782 with NPK76-II-72-1 + Olaparib (first compound 0.1 µM); 0.732 with NPK76-II-72-1 + Olaparib (first compound 0.3162 µM); 0.765 with NPK76-II-72-1 + Olaparib (first compound 1 µM); 0.35 with BI-2536 + OSI-027 (first compound 0.01 µM). The relative viability was 0.21 with BI-2536 + OSI-027 (first compound 0.03162 µM); 0.165 with BI-2536 + OSI-027 (first compound 0.1 µM); 0.162 with BI-2536 + OSI-027 (first compound 0.3162 µM); 0.137 with BI-2536 + OSI-027 (first compound 1 µM); 0.286 with BI-2536 + Trametinib (first compound 0.01 µM); 0.261 in the experiment with BI-2536 + Trametinib (first compound 0.03162 µM). Besides, the relative viability in the experiment with BI-2536 + Trametinib (first compound 0.1 µM) amounted to 0.191; with BI-2536 + Trametinib (first compound 0.3162 µM), 0.12; in the experiment with BI-2536 + Trametinib (first compound 1 µM), 0.166; with BI-2536 + Crizotinib (first compound 0.01 µM), 0.901; in the experiment with BI-2536 + Crizotinib (first compound 0.03162 µM), 0.577; with BI-2536 + Crizotinib (first compound 0.3162 µM), 0.0723. In the experiment with BI-2536 + Crizotinib (first compound 1 µM), the relative viability worked out at 0.093.
Consider NCI-H1915, for which the relative viability stood at 0.271 with NPK76-II-72-1 + Olaparib (first compound 0.01 µM); 0.254 in the experiment with NPK76-II-72-1 + Olaparib (first compound 0.03162 µM); 0.262 in the experiment with NPK76-II-72-1 + Olaparib (first compound 0.1 µM); 0.253 with NPK76-II-72-1 + Olaparib (first compound 0.3162 µM); 0.246 with NPK76-II-72-1 + Olaparib (first compound 1 µM); 0.597 in the experiment with BI-2536 + OSI-027 (first compound 0.01 µM). Further, the relative viability worked out at 0.637 with BI-2536 + OSI-027 (first compound 0.03162 µM); 0.185 with BI-2536 + OSI-027 (first compound 0.1 µM); 0.104 in the experiment with BI-2536 + OSI-027 (first compound 0.3162 µM); 0.121 in the experiment with BI-2536 + OSI-027 (first compound 1 µM); 0.29 with BI-2536 + Trametinib (first compound 0.01 µM); 0.332 with BI-2536 + Trametinib (first compound 0.03162 µM). For the same cell line, the relative viability turned out to be 0.317 with BI-2536 + Trametinib (first compound 0.1 µM); 0.0844 in the experiment with BI-2536 + Trametinib (first compound 0.3162 µM); 0.0806 with BI-2536 + Trametinib (first compound 1 µM); 0.931 with BI-2536 + Crizotinib (first compound 0.01 µM); 0.549 with BI-2536 + Crizotinib (first compound 0.03162 µM); 0.549 in the experiment with BI-2536 + Crizotinib (first compound 0.1 µM). For the same cell line, the relative viability with BI-2536 + Crizotinib (first compound 0.3162 µM) is 0.116; with BI-2536 + Crizotinib (first compound 1 µM) it was 0.108.
Regarding NCI-H2405, the relative viability in the experiment with NPK76-II-72-1 + Olaparib (first compound 0.01 µM) turned out to be 0.861; with NPK76-II-72-1 + Olaparib (first compound 0.03162 µM) it was 0.888; with NPK76-II-72-1 + Olaparib (first compound 0.1 µM), 0.908; with NPK76-II-72-1 + Olaparib (first compound 0.3162 µM), 0.858; with NPK76-II-72-1 + Olaparib (first compound 1 µM), 0.88; in the experiment with BI-2536 + OSI-027 (first compound 0.01 µM), 0.609. Also, the relative viability with BI-2536 + OSI-027 (first compound 0.03162 µM) is 0.64; with BI-2536 + OSI-027 (first compound 0.1 µM), 0.481; with BI-2536 + OSI-027 (first compound 0.3162 µM) it was 0.163; in the experiment with BI-2536 + OSI-027 (first compound 1 µM), 0.312; with BI-2536 + Trametinib (first compound 0.01 µM), 0.607; in the experiment with BI-2536 + Trametinib (first compound 0.03162 µM) it was 0.549. The relative viability was found to be 0.441 in the experiment with BI-2536 + Trametinib (first compound 0.1 µM); 0.277 with BI-2536 + Trametinib (first compound 0.3162 µM); 0.357 in the experiment with BI-2536 + Trametinib (first compound 1 µM); 0.807 with BI-2536 + Crizotinib (first compound 0.01 µM); 0.778 with BI-2536 + Crizotinib (first compound 0.03162 µM); 0.532 with BI-2536 + Crizotinib (first compound 0.1 µM). Also, the relative viability with BI-2536 + Crizotinib (first compound 0.3162 µM) came out at 0.223; in the experiment with BI-2536 + Crizotinib (first compound 1 µM), 0.312.
